Test results as given in ChEMBL document CHEMBL1212731, “Nonclonal emergence of colistin-resistant Klebsiella pneumoniae isolates from blood samples in South Korea” (2010).
In brackets after ≈: the same amount, converted by molar mass.

Columns and labels:
Assay type in all cases: functional
Klebsiella pneumoniae [1] = test: Antimicrobial activity against colistin-susceptible Klebsiella pneumoniae isolated from bacteremia patient assessed as percentage of resistant isolates by broth microdilution method
Klebsiella pneumoniae [2] = test: Antimicrobial activity against colistin-resistant Klebsiella pneumoniae isolated from bacteremia patient assessed as percentage of resistant isolates by broth microdilution method
Klebsiella pneumoniae [3] = test: Antimicrobial activity against colistin-resistant Klebsiella pneumoniae isolated from bacteremia patient by broth microdilution method
Klebsiella pneumoniae [4] = test: Antimicrobial activity against Klebsiella pneumoniae isolated from bacteremia patient assessed as percentage of resistant isolates by broth microdilution method

Compound | Activity (Klebsiella pneumoniae [1]) | Activity (Klebsiella pneumoniae [2]) | MIC50 (Klebsiella pneumoniae [3]) | MIC90 (Klebsiella pneumoniae [3]) | Activity (Klebsiella pneumoniae [4])
CO/N=C(\C(=O)N[C@@H]1C(=O)N2C(C(=O)O)=C(COC(C)=O)CS[C@H]12)c1csc(N)n1 [CEFOTAXIME] | 15.1% | 6.7% | ≤ 0.12 µg/mL | 128 µg/mL (≈ 281 µM) | 14.5%
C[C@@H](O)[C@H]1C(=O)N2C(C(=O)O)=C(SCCNC=N)C[C@H]12 [IMIPENEM ANHYDROUS] | 0.5% |  | 0.25 µg/mL (≈ 0.835 µM) | 1 µg/mL (≈ 3.34 µM) | 0.5%
COLISTIN |  | 100% | 1 µg/mL | 4 µg/mL | 6.8%
C[C@H]1[C@H](NC(=O)/C(=N\OC(C)(C)C(=O)O)c2csc(N)n2)C(=O)N1S(=O)(=O)O [AZTREONAM] | 17.5% | 6.7% | ≤ 0.06 µg/mL | > 64 µg/mL | 16.7%
GENTAMICIN | 17% | 6.7% | 0.5 µg/mL | > 64 µg/mL | 16.3%
CC1(C)S[C@@H]2[C@H](NC(=O)[C@H](N)c3ccccc3)C(=O)N2[C@H]1C(=O)O [AMPICILLIN] | 92.2% | 80% | 64 µg/mL (≈ 183 µM) | > 64 µg/mL | 91.4%
CC(C)(O/N=C(\C(=O)N[C@@H]1C(=O)N2C(C(=O)[O-])=C(C[n+]3ccccc3)CS[C@H]12)c1csc(N)n1)C(=O)O [CEFTAZIDIME] | 18.5% | 6.7% | 0.25 µg/mL (≈ 0.457 µM) | > 64 µg/mL | 17.7%
O=C(O)c1cn(C2CC2)c2cc(N3CCNCC3)c(F)cc2c1=O [CIPROFLOXACIN] | 17.5% | 20% | ≤ 0.06 µg/mL | 64 µg/mL (≈ 193 µM) | 17.7%
